Test results: US10596109B2 (Abela Pharmaceuticals, Inc., priority 2009, dated 2020)
Read-outs that look alike come from different tables or passages of the source.

Experiments:
S. pneumonia [1] = assay: Bacterial viability by bioluminescent ATP assay, 7 hours culture
S. pneumonia [2] = details: Streptococcus pneumonia, 7 h
S. pyogenes [3] = details: Streptococcus pyogenes, 18 h
S. pyogenes [4] = assay: Bacterial viability by bioluminescent ATP assay, 18 hours culture; details: MSM alone at 8%

SMILES	Reduction in bacterial viability (S. pneumonia [1]; DMSO 5% alone)	S. pneumonia viability (S. pneumonia [2]; 5 %) [%]	S. pneumonia viability (S. pneumonia [2]; 10 %) [%]	S. pyogenes viability (S. pyogenes [3]; 0.63 %) [%]	S. pyogenes viability (S. pyogenes [3]; 1.25 %) [%]	S. pyogenes viability (S. pyogenes [3]; 10 %) [%]	S. pyogenes viability (S. pyogenes [3]; 20 %) [%]	S. pyogenes viability (S. pyogenes [3]; […]) [%]	Reduction in bacterial viability (S. pneumonia [1]; MSM 5% alone) [%]	S. pneumonia viability (S. pneumonia [1]; MSM 10%) [%]	S. pneumonia viability (S. pneumonia [1]; MSM 20%) [%]	Reduction in bacterial viability (estimated) (S. pyogenes [4])
C[S+](C)[O-] [DMSO, Dimethyl sulfoxide]	approximately 25%	75.45	40.18	100	100	14.50	5.14	100	–	–	–	–
CS(C)(=O)=O [MSM, Methylsulfonylmethane]	–	–	–	–	–	–	–	–	~5	48.57	39.08	approximately 89%
